Results reported in ChEMBL document CHEMBL5653615 (J Biol Chem, 2013).

Experiments:
[1] = biological target: RAC-gamma serine/threonine-protein kinase (Homo sapiens) (UniProt Q9Y243); assay: Inhibition of human AKT3 at 500 nM by HotSpot assay relative to control
[2] = biological target: T1, Serine/threonine-protein kinase A-Raf (Homo sapiens) (UniProt P10398); assay: Inhibition of human ARAF at 500 nM by HotSpot assay relative to control
T1 sequence (whole entry): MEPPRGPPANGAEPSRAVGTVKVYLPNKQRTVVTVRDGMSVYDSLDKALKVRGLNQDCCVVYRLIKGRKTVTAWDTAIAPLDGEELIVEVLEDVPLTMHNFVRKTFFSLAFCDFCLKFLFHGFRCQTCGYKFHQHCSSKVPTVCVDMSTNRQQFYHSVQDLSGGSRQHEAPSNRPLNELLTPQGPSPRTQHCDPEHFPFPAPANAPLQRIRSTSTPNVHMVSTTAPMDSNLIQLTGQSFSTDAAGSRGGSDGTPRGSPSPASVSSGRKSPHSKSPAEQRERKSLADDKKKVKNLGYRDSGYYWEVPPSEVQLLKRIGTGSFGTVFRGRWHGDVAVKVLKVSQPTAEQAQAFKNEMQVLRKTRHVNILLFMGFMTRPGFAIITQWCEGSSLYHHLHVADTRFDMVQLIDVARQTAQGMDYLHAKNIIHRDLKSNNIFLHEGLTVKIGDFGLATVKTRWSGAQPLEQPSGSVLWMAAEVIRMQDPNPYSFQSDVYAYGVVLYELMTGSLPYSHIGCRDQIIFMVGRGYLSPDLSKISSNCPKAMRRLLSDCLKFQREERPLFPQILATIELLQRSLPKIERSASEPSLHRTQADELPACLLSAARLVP

[3] = biological target: Calcium/calmodulin-dependent protein kinase type 1B (Homo sapiens) (UniProt Q6P2M8); assay: Inhibition of human CAMK1b at 500 nM by HotSpot assay relative to control
Sequence of Calcium/calmodulin-dependent protein kinase type 1B (Homo sapiens) (Q6P2M8 whole entry): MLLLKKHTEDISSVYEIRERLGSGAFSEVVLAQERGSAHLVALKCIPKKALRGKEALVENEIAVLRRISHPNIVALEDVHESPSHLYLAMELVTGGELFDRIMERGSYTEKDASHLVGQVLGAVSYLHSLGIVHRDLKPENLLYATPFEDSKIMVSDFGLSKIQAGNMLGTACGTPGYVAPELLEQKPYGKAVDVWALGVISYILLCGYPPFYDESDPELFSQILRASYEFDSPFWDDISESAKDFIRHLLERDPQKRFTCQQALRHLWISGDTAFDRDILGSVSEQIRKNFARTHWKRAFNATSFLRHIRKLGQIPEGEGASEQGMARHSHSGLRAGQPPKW

[4] = biological target: Tyrosine-protein kinase Fyn (Homo sapiens) (UniProt P06241); assay: Inhibition of human FYN at 500 nM by HotSpot assay relative to control
Sequence of Tyrosine-protein kinase Fyn (Homo sapiens) (P06241 2-537 limits assumed): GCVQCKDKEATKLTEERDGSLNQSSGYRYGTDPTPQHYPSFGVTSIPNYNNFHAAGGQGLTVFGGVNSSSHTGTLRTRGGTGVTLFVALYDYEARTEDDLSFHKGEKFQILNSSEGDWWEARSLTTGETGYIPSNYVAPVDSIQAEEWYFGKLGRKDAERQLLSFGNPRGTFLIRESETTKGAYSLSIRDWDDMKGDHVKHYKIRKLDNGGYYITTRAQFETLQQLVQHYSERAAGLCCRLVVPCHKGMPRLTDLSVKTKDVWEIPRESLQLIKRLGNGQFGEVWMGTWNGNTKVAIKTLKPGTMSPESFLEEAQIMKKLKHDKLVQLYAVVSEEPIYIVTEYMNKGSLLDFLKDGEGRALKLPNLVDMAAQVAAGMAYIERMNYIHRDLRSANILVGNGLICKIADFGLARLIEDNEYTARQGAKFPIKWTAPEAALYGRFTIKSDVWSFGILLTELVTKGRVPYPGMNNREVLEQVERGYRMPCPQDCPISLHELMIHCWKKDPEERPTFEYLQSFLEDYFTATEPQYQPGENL

[5] = biological target: T2, Mitogen-activated protein kinase kinase kinase kinase 2 (Homo sapiens) (UniProt Q12851); assay: Inhibition of human GCK at 500 nM by HotSpot assay relative to control
T2 sequence (whole entry): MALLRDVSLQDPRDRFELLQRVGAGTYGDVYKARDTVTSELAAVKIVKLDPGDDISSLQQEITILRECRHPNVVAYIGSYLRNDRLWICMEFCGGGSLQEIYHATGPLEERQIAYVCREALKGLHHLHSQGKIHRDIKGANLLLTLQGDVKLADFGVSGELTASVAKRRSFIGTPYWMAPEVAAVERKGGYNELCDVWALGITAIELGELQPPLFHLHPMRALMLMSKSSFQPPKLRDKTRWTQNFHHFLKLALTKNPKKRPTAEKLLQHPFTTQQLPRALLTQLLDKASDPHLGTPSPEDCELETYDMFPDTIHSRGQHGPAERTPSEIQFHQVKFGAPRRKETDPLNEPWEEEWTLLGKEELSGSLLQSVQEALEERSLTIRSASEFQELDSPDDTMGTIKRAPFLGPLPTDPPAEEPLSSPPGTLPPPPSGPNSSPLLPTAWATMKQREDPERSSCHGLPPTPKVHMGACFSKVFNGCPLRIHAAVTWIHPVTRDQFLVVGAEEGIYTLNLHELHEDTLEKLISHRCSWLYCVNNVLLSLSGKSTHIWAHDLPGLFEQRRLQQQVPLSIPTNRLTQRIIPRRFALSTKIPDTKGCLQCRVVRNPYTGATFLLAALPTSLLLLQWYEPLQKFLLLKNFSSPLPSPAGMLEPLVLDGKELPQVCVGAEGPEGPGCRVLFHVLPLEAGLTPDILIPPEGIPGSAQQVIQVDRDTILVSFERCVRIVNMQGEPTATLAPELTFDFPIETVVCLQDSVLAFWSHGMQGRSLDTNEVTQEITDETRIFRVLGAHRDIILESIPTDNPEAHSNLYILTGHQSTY

[6] = biological target: Tyrosine-protein kinase JAK1 (Homo sapiens) (UniProt P23458); assay: Inhibition of human JAK1 at 500 nM by HotSpot assay relative to control
Sequence of Tyrosine-protein kinase JAK1 (Homo sapiens) (P23458 whole entry): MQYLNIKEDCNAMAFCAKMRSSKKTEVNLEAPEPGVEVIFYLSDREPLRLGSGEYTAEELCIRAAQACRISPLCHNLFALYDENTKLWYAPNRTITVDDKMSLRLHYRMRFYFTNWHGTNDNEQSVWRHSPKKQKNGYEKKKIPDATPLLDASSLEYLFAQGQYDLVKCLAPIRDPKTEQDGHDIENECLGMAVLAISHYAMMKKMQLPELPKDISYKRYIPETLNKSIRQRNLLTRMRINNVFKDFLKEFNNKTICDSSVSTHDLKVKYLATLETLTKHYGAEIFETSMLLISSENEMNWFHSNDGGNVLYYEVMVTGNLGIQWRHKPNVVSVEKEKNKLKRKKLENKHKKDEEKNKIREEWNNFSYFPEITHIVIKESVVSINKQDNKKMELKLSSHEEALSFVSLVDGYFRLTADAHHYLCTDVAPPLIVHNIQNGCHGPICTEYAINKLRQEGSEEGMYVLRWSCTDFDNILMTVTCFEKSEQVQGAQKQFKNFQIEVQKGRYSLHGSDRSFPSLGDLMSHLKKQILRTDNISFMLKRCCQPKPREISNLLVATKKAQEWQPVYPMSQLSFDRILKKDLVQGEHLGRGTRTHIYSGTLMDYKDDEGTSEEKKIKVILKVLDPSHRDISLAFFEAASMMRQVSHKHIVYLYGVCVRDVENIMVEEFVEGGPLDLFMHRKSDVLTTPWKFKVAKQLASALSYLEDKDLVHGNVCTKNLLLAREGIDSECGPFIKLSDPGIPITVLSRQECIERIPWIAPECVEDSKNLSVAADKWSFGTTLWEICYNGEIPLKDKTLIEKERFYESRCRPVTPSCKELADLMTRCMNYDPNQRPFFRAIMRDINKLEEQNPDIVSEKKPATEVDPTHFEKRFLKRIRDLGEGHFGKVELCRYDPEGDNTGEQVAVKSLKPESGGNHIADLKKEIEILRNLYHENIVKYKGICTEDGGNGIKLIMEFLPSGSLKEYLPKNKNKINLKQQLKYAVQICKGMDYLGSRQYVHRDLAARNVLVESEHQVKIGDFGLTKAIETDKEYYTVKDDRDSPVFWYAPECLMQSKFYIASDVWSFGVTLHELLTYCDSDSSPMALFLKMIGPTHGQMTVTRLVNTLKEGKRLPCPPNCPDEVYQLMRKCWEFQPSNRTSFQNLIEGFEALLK

[7] = biological target: MAP kinase-activated protein kinase 3 (Homo sapiens) (UniProt Q16644); assay: Inhibition of human MAPKAPK3 at 500 nM by HotSpot assay relative to control
Sequence of MAP kinase-activated protein kinase 3 (Homo sapiens) (Q16644 whole entry, looked up): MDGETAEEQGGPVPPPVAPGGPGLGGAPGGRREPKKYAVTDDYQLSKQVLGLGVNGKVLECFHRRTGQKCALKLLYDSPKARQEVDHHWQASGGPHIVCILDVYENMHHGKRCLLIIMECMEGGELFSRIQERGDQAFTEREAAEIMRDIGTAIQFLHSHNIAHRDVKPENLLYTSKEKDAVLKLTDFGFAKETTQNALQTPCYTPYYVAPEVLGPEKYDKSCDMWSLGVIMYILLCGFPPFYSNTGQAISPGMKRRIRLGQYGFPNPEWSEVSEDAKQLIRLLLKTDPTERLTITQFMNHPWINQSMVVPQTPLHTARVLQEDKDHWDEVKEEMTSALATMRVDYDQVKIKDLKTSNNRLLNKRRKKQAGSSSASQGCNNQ

[8] = biological target: Serine/threonine-protein kinase PAK 4 (Homo sapiens) (UniProt O96013); assay: Inhibition of human PAK4 at 500 nM by HotSpot assay relative to control
Sequence of Serine/threonine-protein kinase PAK 4 (Homo sapiens) (O96013 whole entry, looked up): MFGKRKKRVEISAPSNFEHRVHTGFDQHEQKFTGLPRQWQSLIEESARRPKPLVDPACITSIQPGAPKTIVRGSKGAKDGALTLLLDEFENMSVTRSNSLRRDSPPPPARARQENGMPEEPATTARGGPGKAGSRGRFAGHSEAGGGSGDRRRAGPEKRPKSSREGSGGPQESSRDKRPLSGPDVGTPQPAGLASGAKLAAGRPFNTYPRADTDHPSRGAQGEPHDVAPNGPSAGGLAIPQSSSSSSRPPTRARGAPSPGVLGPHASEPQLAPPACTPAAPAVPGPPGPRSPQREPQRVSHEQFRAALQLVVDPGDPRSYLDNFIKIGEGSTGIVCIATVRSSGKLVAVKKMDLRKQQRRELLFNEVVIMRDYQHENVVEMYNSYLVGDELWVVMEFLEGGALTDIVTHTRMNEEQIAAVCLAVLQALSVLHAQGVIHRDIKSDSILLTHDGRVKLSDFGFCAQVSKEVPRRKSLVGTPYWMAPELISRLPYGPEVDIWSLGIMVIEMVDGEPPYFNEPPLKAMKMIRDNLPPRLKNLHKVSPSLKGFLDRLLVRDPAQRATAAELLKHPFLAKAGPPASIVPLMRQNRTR

[9] = biological target: Proto-oncogene tyrosine-protein kinase ROS (Homo sapiens) (UniProt P08922); assay: Inhibition of human ROS1 at 500 nM by HotSpot assay relative to control
[10] = biological target: T3, Serine/threonine-protein kinase Sgk1 (Homo sapiens) (UniProt O00141); assay: Inhibition of human SGK1 at 500 nM by HotSpot assay relative to control
T3 sequence (whole entry): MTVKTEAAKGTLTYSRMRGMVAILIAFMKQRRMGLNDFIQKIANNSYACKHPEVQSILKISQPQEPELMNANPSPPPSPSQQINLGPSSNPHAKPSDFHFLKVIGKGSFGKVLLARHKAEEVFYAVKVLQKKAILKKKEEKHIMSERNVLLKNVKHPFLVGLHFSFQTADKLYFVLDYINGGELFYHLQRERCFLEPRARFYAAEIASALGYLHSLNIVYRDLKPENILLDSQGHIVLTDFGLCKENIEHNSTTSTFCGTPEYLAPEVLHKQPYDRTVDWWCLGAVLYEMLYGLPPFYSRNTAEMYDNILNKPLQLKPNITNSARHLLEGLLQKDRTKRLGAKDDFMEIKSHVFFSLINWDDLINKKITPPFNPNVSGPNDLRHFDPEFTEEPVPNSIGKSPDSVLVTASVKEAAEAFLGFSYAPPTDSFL

Sequence of RAC-gamma serine/threonine-protein kinase (Homo sapiens) (Q9Y243 whole entry): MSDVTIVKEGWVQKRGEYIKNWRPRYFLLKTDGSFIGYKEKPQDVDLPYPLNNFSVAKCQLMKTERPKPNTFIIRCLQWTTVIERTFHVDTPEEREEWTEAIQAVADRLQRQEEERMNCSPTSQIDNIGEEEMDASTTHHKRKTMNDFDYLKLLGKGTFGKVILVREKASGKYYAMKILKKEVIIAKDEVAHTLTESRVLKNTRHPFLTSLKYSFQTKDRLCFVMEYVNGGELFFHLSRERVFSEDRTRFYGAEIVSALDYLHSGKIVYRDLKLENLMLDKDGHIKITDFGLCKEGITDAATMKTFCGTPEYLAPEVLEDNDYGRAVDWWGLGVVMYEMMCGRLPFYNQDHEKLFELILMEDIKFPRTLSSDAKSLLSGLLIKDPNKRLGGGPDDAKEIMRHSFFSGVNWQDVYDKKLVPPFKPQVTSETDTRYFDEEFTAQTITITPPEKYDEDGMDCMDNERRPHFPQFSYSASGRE

Compound | inhibition [1] | inhibition [2] | inhibition [3] | inhibition [4] | inhibition [5] | inhibition [6] | inhibition [7] | inhibition [8] | inhibition [9] | inhibition [10]
Nc1n[nH]c2nnc(-c3c(-c4ccccc4)nn4ccccc34)cc12 | 2.52% | 1.59% | 0.39% | 4.98% | 1.42% | -3.59% | -2.71% | -1.44% | 19.8% | 0.11%
Oc1n[nH]c2nnc(-c3c(-c4ccccc4)nn4ccccc34)cc12 | 2.1% | 2.19% | -0.91% | -0.67% | -5.76% | -1.98% | -0.14% | -0.93% | 2.73% | -4.65%
